Data published in patent US9221838B2, “Inhibitors of AKT activity” (ALMAC DISCOVERY LIMITED, priority 2009, dated 2015).

Key:
Type in all cases: biochemical
AKT2 = molecular target: T1, AKT2 (Homo sapiens, UniProt P31751); assay: AKT Kinase Assay (IMAP fluorescent polarisation) vs AKT2
T1 construct: purchased SignalChem
Method in brief: (§1)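 Phosphorylation of FAM-Crosstide detected by IMAP binding and fluorescence polarisation (485/528 nm), with IC50 fitted from % inhibition versus vehicle. Compound was incubated 45 min with enzyme, then reacted 1 h at room temperature with ATP and peptide in Tris/MgCl2/DTT buffer. Dose response had fourteen half-log points.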

AKT3 = molecular target: T2, AKT3 (Homo sapiens, UniProt Q9Y243); assay: AKT Kinase Assay (IMAP fluorescent polarisation) vs AKT3
T2 construct: purchased SignalChem
T2 sequence (Q9Y243 whole entry): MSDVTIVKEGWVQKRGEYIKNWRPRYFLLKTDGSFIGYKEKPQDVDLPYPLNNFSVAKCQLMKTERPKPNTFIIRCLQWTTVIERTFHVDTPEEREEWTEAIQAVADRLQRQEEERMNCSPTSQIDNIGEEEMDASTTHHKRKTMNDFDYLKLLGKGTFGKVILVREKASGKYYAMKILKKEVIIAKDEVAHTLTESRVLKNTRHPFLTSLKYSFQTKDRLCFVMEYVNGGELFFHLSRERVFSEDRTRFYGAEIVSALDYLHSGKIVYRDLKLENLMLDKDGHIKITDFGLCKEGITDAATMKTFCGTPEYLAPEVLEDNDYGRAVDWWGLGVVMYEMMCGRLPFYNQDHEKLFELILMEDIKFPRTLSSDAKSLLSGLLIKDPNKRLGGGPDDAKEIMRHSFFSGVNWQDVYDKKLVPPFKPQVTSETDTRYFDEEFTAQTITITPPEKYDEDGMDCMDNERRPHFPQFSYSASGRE
Method in brief: as §1

AKT1 = molecular target: T3, AKT1 (Homo sapiens, UniProt P31749); assay: AKT Kinase Assay (IMAP fluorescent polarisation) vs AKT1
T3 construct: purchased SignalChem
T3 sequence (P31749 whole entry): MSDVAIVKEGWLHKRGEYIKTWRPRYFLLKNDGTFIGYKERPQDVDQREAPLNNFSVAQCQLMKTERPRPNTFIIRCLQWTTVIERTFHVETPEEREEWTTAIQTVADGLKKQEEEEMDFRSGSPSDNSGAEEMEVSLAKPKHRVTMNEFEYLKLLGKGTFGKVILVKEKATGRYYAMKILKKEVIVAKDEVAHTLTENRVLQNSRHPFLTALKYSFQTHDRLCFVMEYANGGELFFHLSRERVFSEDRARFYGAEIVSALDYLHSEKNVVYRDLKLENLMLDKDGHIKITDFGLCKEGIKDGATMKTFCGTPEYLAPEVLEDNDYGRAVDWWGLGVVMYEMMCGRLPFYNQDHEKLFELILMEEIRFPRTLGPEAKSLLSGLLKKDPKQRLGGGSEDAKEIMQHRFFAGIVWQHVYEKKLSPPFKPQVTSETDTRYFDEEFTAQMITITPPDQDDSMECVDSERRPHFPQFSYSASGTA
Method in brief: as §1

T1 sequence (P31751 whole entry): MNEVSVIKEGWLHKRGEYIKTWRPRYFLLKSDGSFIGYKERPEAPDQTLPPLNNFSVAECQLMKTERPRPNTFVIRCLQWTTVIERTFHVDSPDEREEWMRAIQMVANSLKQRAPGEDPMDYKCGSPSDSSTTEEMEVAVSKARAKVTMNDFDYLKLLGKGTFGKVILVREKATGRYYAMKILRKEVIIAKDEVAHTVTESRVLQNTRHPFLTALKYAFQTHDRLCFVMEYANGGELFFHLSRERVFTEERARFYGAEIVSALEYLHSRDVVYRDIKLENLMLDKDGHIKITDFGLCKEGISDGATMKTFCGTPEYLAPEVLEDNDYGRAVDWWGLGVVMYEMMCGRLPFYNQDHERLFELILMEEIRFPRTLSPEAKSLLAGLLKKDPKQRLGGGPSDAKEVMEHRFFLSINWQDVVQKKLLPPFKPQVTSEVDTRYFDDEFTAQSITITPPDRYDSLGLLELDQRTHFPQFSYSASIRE

Work on `NC1(c2ccc(-c3nc4c(cc3-c3ccccc3)-c3n[nH]c(=O)n3CC4)cc2)CCC1` [Example 26, 8-(4-(1-aminocyclobutyl)phenyl)-9-phenyl-5,6-dihydro-[1,2,4]triazolo[3,4][1,6]naphthyridin-3(2H)-one] yielded an IC50 (AKT2) of 1000 to 10000 nM, an IC50 (AKT3) greater than 10000 nM and an IC50 (AKT1) of no more than 100 nM.

`NC(=O)c1nnc2n1-c1cc(-c3ccccc3)c(-c3ccc(C4(N)CCC4)cc3)nc1OC2` [Example 119, 7-(4-(1-aminocyclobutyl)phenyl)-8-phenyl-4H-pyrido[2,3-b][1,2,4]triazolo[4,3-d][1,4]oxazine-1-carboxamide] gave an IC50 (AKT2) of 100 to 1000 nM, an IC50 (AKT3) of 1000 to 10000 nM and an IC50 (AKT1) of 100 to 1000 nM.

`C#CCN1C(=O)COc2nc(-c3ccc(C4(N)CCC4)cc3)c(-c3ccccc3)cc21` [Example 32, 6-(4-(1-aminocyclobutyl)phenyl)-7-phenyl-1-(prop-2-yn-1-yl)-1H-pyrido[2,3-b][1,4]oxazin-2(3H)-one] was tested, and the IC50 (AKT2) was 100 to 1000 nM, the IC50 (AKT3) was greater than 10000 nM and the IC50 (AKT1) was 100 to 1000 nM.

`C[C@]1(O)C[C@@](N)(c2ccc(-c3nc4c(cc3-c3ccccc3)-n3c(nnc3C(F)F)CO4)cc2)C1` [Example 128, (1r,3r)-3-amino-3-(4-(1-(difluoromethyl)-8-phenyl-4H-pyrido[2,3-b][1,2,4]triazolo[4,3-d][1,4]oxazin-7-0)phenyl)-1-methylcyclobutanol] showed an IC50 (AKT2) of 100 to 1000 nM, an IC50 (AKT3) of 100 to 1000 nM and an IC50 (AKT1) of no more than 100 nM.

`CC1(C)Cc2nc(-c3ccc(C4(N)CCC4)cc3)c(-c3ccccc3)cc2-c2n[nH]cc21` [Example 19, 1-(4-(4,4-dimethyl-8-phenyl-4,5-dihydro-2H-pyrazolo[3,4-f]quinolin-7-yl)phenyl)cyclobutanamine] gave an IC50 (AKT2) of 100 to 1000 nM, an IC50 (AKT3) greater than 10000 nM and an IC50 (AKT1) of 100 to 1000 nM.

`Cn1cnc(-c2nnc3n2CCc2nc(-c4ccc(C5(N)CCC5)cc4)c(-c4ccccc4)cc2-3)c1` [Example 29, 1-(4-(3-(1-methyl-1H-imidazol-4-yl)-9-phenyl-5,6-dihydro-[1,2,4]triazolo[3,4-f][1,6]naphthyridin-8-yl)phenyl)cyclobutanamine] was tested, and the IC50 (AKT2) was 100 to 1000 nM, the IC50 (AKT3) was greater than 10000 nM and the IC50 (AKT1) was no more than 100 nM.

`NC1(c2ccc(-c3nc4c(cc3-c3ccccc3)-n3c(CO)nnc3CO4)cc2)CCC1` [Example 107] was tested, and the IC50 (AKT2) was 1000 to 10000 nM, the IC50 (AKT3) was 1000 to 10000 nM and the IC50 (AKT1) was no more than 100 nM.

`NC1(c2ccc(-c3nc4c(cc3-c3ccccc3)N(Cc3cccnc3)C(=O)CO4)cc2)CCC1` [Example 46, 6-(4-(1-aminocyclobutyl)phenyl)-7-phenyl-1-(pyridin-3-ylmethyl)-1H-pyrido[2,3-b][1,4]oxazin-2(3H)-one] was tested, and the IC50 (AKT2) was 100 to 1000 nM, the IC50 (AKT3) was 100 to 1000 nM and the IC50 (AKT1) was 100 to 1000 nM.

In the case of `NC1(c2ccc(-c3nc4c(cc3-c3ccccc3)-n3c(nnc3C(F)F)CO4)cc2)CCC1` [Example 98, 1-(4-(1-(difluoromethyl)-8-phenyl-4H-pyrido[2,3-b][1,2,4]triazolo[4,3-d][1,4]oxazin-7-yl)phenyl)cyclobutanamine], the IC50 (AKT2) is reported as 100 to 1000 nM, the IC50 (AKT3) is reported as 100 to 1000 nM and the IC50 (AKT1) is reported as no more than 100 nM.

In the case of `NCc1ccc(-c2nc3c(cc2-c2ccccc2)N(CC(F)(F)F)C(=O)CO3)cc1` [Example 146, 6-(4-(Aminomethyl)phenyl)-7-phenyl-1-(2,2,2-trifluoroethyl)-1H-pyrido[2,3-b][1,4]oxazin-2(3H)-one], the IC50 (AKT2) is reported as 100 to 1000 nM, the IC50 (AKT3) is reported as greater than 10000 nM and the IC50 (AKT1) is reported as 1000 to 10000 nM.

For `NC1(c2ccc(-c3nc4c(cc3-c3ccccc3)N(CC3CCC3)C(=O)CO4)cc2)CCC1` [Example 48, 6-(4-(1-aminocyclobutyl)phenyl)-1-(cyclobutylmethyl)-7-phenyl-1H-pyrido[2,3-b][1,4]oxazin-2(3H)-one], the IC50 (AKT2) was no more than 100 nM, the IC50 (AKT3) was 100 to 1000 nM and the IC50 (AKT1) was 100 to 1000 nM.

For `NC1(c2ccc(-c3nc4c(cc3-c3ccccc3)NC(=O)C(CCO)O4)cc2)CCC1` (stereo not drawn) [Example 71, 6-(4-(1-aminocyclobutyl)phenyl)-3-(2-hydroxyethyl)-7-phenyl-1H-pyrido[2,3-b][1,4]oxazin-2(3H)-one], the IC50 (AKT2) was 1000 to 10000 nM, the IC50 (AKT3) was 1000 to 10000 nM and the IC50 (AKT1) was 100 to 1000 nM.
